{"source": "patent US6593342B1", "about": "“Pharmaceutical compositions comprising 2-quinolones” (Laboratoire L. Lafon, priority 1998, dated 2003)", "key": {"A549": {"tested_on": "A549", "assay": "MTT test, A549", "format": "cell-based", "details": "Homo sapiens, 10^−5 M, 72 hours, control = 100%, mean ± SEM, read-out: average optical density (MTT), percentage relative to control", "protocol": "(§1) The influence of the compounds of formulae (I) and (Ia) on non-clonogenic cells was evaluated with the aid of the MTT calorimetric test.\n(§2) The principle of the MTT test is based on the mitochondrial reduction, by the metabolically active live cells, of the yellow-colored product MTT (3-(4,5-dimethylthiazol-2-yl)-2,5-diphenyltetrazolium bromide) to a blue-colored product, formazan. The amount of formazan thus obtained is directly proportional to the amount of live cells present in the culture well(s). This amount of formazan is measured by spectrophotometry.\n(§3) The cell lines are maintained as a monolayer culture at 37° C. in stoppered culture dishes containing MEM 25 MM HEPES (Minimum Essential Medium) base medium. This medium is suited to the growth of a range of various mammalian diploid or primary cells. This medium is then supplemented with:\n(§4) an amount of 5% of FCS (Foetal Calf Serum) decomplemented at 56° C. for 1 hour,\n(§5) 0.6 mg/ml of L-glutamine,\n(§6) 200 μg/ml of streptomycin,\n(§7) The 12 human cancer cell lines which were used were obtained from the American Type Culture Collection (ATCC, Rockville, Md., USA). These 12 cell lines are:\n(§8) A549 (code ATCC: CCL-185) and A-427 (code ATCC: HTB-53) which are two non-small-cell lung cancers,\n(§9) Experimentally: 100 μl of a cell suspension containing 20 000 to 50 000 (depending on the cell type used) cells/ml of culture medium are inoculated in 96-well flat-bottomed multi-well plates and are incubated at 37° C., under an atmosphere comprising 5% CO2 and 70% humidity. After incubation for 24 hours, the culture medium is replaced with 100 μl of fresh medium containing either the various test compounds at concentrations ranging from 10^−5 to 10^−10 M or the solvent used to dissolve the test products (control condition). After incubation for 72 hours under the above conditions, the culture medium is replaced with 100 μl of a yellowish solution of MTT dissolved at a rate of 1 mg/ml in RPMI 1640. The microplates are reincubated for 3 hours at 37° C. and are then centrifuged for 10 minutes at 400×g. The yellowish solution of MTT is removed and the blue formazan crystals formed in the cell are dissolved in 100 μl of DMSO. The microplates are then shaken for 5 minutes. The intensity of the resulting blue coloration, and thus of the conversion of the yellow product MTT into blue formazan by the cells that are still alive at the end of the experiment, is quantified by spectrophotometry using a Dynatech Immunoassay System machine at wavelengths of 570 nm and 630 nm corresponding, respectively, to the maximum absorption wavelengths of formazan and to the background noise. Software incorporated in the spectrophotometer calculates the average optical density values and the standard deviation (SD) and standard error of mean (SEM) values.\n(§10) By way of example, the results of the average optical density, expressed as a percentage relative to the average optical density measured under the control condition (set equal to 100%), obtained at a concentration of 10^−5 M on the 12 abovementioned tumor cell lines are given in Table II."}, "U-87MG": {"tested_on": "U-87MG", "assay": "MTT test, U-87MG", "format": "cell-based", "details": "Homo sapiens, 10^−5 M, 72 hours, control = 100%, mean ± SEM, read-out: average optical density (MTT), percentage relative to control", "protocol": "as §1, §2, §3, §4, §5, §6, §7\n(§11) U-373MG (code ATCC: HTB-17) and U-87MG (code ATCC: HTB-14) which are two glioblastomas,\nas §9, §10"}, "T-47D": {"tested_on": "T-47D", "assay": "MTT test, T-47D", "format": "cell-based", "details": "Homo sapiens, T47D, 10^−5 M, 72 hours, control = 100%, mean ± SEM, read-out: average optical density (MTT), percentage relative to control", "protocol": "as §1, §2, §3, §4, §5, §6, §7\n(§12) T-47D (code ATCC: HTB-133) and MCF7 (code ATCC: HTB-22) which are two breast cancers,\nas §9, §10"}, "LoVo": {"tested_on": "LoVo", "assay": "MTT test, LoVo", "format": "cell-based", "details": "Homo sapiens, 10^−5 M, 72 hours, control = 100%, mean ± SEM, read-out: average optical density (MTT), percentage relative to control", "protocol": "as §1, §2, §3, §4, §5, §6, §7\n(§13) HTC-15 (code ATCC: CCL-225) and LoVo (code ATCC: CCL-229) which are two colorectal cancers,\nas §9, §10"}, "SW1088": {"tested_on": "SW1088", "assay": "MTT test, SW1088", "format": "cell-based", "details": "Homo sapiens, 10^−5 M, 72 hours, control = 100%, mean ± SEM, read-out: average optical density (MTT), percentage relative to control", "protocol": "as §1, §2, §3, §4, §5, §6, §7\nSW1088 (code ATCC: HTB-12) which is an astrocytoma,\nas §9, §10"}, "T24": {"tested_on": "T24", "assay": "MTT test, T24", "format": "cell-based", "details": "Homo sapiens, T-24, 10^−5 M, 72 hours, control = 100%, mean ± SEM, read-out: average optical density (MTT), percentage relative to control", "protocol": "as §1, §2, §3, §4, §5, §6, §7\n(§14) J82 (code ATCC: HTB-1) and T24 (code ATCC: HTB-4) which are two bladder cancers,\nas §9, §10"}, "J82": {"tested_on": "J82", "assay": "MTT test, J82", "format": "cell-based", "details": "Homo sapiens, 10^−5 M, 72 hours, control = 100%, mean ± SEM, read-out: average optical density (MTT), percentage relative to control", "protocol": "as §1, §2, §3, §4, §5, §6, §7, §14, §9, §10"}, "MCF7": {"tested_on": "MCF7", "assay": "MTT test, MCF7", "format": "cell-based", "details": "Homo sapiens, 10^−5 M, 72 hours, control = 100%, mean ± SEM, read-out: average optical density (MTT), percentage relative to control", "protocol": "as §1, §2, §3, §4, §5, §6, §7, §12, §9, §10"}, "[1]": {"assay": "Determination of the maximum tolerated dose (MTD)", "details": "mouse, in vivo, ip; B6D2F1/Jico mice; single intraperitoneal administration, 2.5 to 160 mg/kg; survival over 14 days", "protocol": "3.—Determination of the Maximum Tolerated Dose (MTD):\nThe evaluation of the maximum tolerated dose was carried out on 4- to 6-week-old B6D2F1/Jico mice. The compounds were administered intraperitoneally at increasing doses graduating from 2.5 to 160 mg/kg. The value of the MTD (expressed in mg/kg) is determined from the observation of the survival rate of the animals over a 14-day period after a single administration of the product under consideration. The weight change of the animals is also monitored during this period. When the value of the MTD is greater than 160 mg/kg, the MTD value is likened to 160 mg/kg by default.\nThe results of the estimation of the maximum tolerated dose (MTD) are collated in the following table: […]"}, "A-427": {"tested_on": "A-427", "assay": "MTT test, A-427", "format": "cell-based", "details": "Homo sapiens, 10^−5 M, 72 hours, control = 100%, mean ± SEM, read-out: average optical density (MTT), percentage relative to control", "protocol": "as §1, §2, §3, §4, §5, §6, §7, §8, §9, §10"}, "HCT-15": {"tested_on": "HCT-15", "assay": "MTT test, HCT-15", "format": "cell-based", "details": "Homo sapiens, 10^−5 M, 72 hours, control = 100%, mean ± SEM, read-out: average optical density (MTT), percentage relative to control", "protocol": "as §1, §2, §3, §4, §5, §6, §7, §13, §9, §10"}, "U-373MG": {"tested_on": "U-373MG", "assay": "MTT test, U-373MG", "format": "cell-based", "details": "Homo sapiens, U373 MG, 10^−5 M, 72 hours, control = 100%, mean ± SEM, read-out: average optical density (MTT), percentage relative to control", "protocol": "as §1, §2, §3, §4, §5, §6, §7, §11, §9, §10"}, "PC-3": {"tested_on": "PC-3", "assay": "MTT test, PC-3", "format": "cell-based", "details": "Homo sapiens, 10^−5 M, 72 hours, control = 100%, mean ± SEM, read-out: average optical density (MTT), percentage relative to control", "protocol": "as §1, §2, §3, §4, §5, §6, §7\nPC-3 (code ATCC: CRL-1435) which is a prostate cancer.\nas §9, §10"}}, "data": [{"smiles": "Cc1ccc2[nH]c(=O)c(-c3ccccc3)cc2c1", "note": "[Compound 48, 6-Methyl-3-phenyl-1,2-dihydro-2-quinolinone]", "values": [{"measurement": "melting point", "result": "212 to 213", "unit": "°C"}]}, {"smiles": "COc1ccc(-c2cc3c(OC)cc(OC)cc3nc2OCC(=O)OCc2ccccc2)cc1", "note": "[Compound 13a, Benzyl 2-([5,7-Dimethoxy-3-(4-methoxyphenyl)-2-quinolinyl]oxy)acetate]", "values": [{"measurement": "melting point", "result": "114 to 115", "unit": "°C"}]}, {"smiles": "CCOC(=O)COc1nc2cc(OC)cc(OC)c2cc1-c1ccc(OC)cc1", "note": "[Compound 11a, Ethyl 2-([5,7-Dimethoxy-3-(4-methoxyphenyl)-2-quinolinyl]oxy)acetate]", "values": [{"measurement": "melting point", "result": "95 to 96", "unit": "°C"}]}, {"smiles": "COc1ccc(-c2cc3c(OC)cc(OC)cc3nc2OCCCN(C)C)cc1", "note": "[Compound 22a]", "values": [{"measurement": "melting point", "result": "54 to 55", "unit": "°C"}]}, {"smiles": "COc1cc(OC)c2cc(-c3ccc(OS(=O)(=O)C(F)(F)F)cc3)c(=O)n(C)c2c1", "note": "[Compound 45]", "values": [{"measurement": "melting point", "result": "144 to 145", "unit": "°C"}]}, {"smiles": "COc1ccc(-c2cc3c(OC)cc(OC)cc3nc2OC)cc1", "note": "[Compound 7a, 2,5,7-Trimethoxy-3-(4-methoxyphenyl)quinoline]", "values": [{"measurement": "melting point", "result": "106 to 107", "unit": "°C"}]}, {"smiles": "COc1cc(OC)c2cc(-c3ccc(O)cc3)c(O)nc2c1", "note": "[CRL8284, 5,7-Dimethoxy-3-(4-hydroxyphenyl)-1,2-dihydro-2-quinolinone]", "values": [{"measurement": "viability at 10 µM", "setting": "A549", "result": "91.7 ± 1.6", "unit": "%"}, {"measurement": "viability at 10 µM", "setting": "U-87MG", "result": "88.1 ± 2.2", "unit": "%"}, {"measurement": "viability at 10 µM", "setting": "T-47D", "result": "89.9 ± 1.9", "unit": "%"}, {"measurement": "viability at 10 µM", "setting": "LoVo", "result": "102 ± 1.3", "unit": "%"}, {"measurement": "viability at 10 µM", "setting": "SW1088", "result": "78.3 ± 1.6", "unit": "%"}, {"measurement": "viability at 10 µM", "setting": "T24", "result": "68.5 ± 0.9", "unit": "%"}, {"measurement": "viability at 10 µM", "setting": "J82", "result": "48.8 ± 0.7", "unit": "%"}, {"measurement": "viability at 10 µM", "setting": "MCF7", "result": "66.6 ± 2.7", "unit": "%"}, {"measurement": "MTD at 14 day", "setting": "[1]", "result": "> 160", "unit": "mg/kg"}, {"measurement": "viability at 10 µM", "setting": "A-427", "result": "96 ± 2", "unit": "%"}, {"measurement": "viability at 10 µM", "setting": "HCT-15", "result": "77.3 ± 1.8", "unit": "%"}, {"measurement": "viability at 10 µM", "setting": "U-373MG", "result": "87.7 ± 1.4", "unit": "%"}, {"measurement": "viability at 10 µM", "setting": "PC-3", "result": "83.8 ± 1", "unit": "%"}]}, {"smiles": "COc1ccc(-c2cc3c(OC)cc(OC)cc3n(CCC(=O)O)c2=O)cc1", "note": "[CRL8319, 3-[5,7-Dimethoxy-3-(4-methoxyphenyl)-2-oxo-1,2-dihydro-1-quinolinyl]propanoic Acid]", "values": [{"measurement": "viability at 10 µM", "setting": "A549", "result": "97.3 ± 1.2", "unit": "%"}, {"measurement": "viability at 10 µM", "setting": "U-87MG", "result": "115 ± 2.9", "unit": "%"}, {"measurement": "viability at 10 µM", "setting": "T-47D", "result": "104 ± 2.5", "unit": "%"}, {"measurement": "viability at 10 µM", "setting": "LoVo", "result": "79.7 ± 2.7", "unit": "%"}, {"measurement": "viability at 10 µM", "setting": "SW1088", "result": "89.8 ± 2.7", "unit": "%"}, {"measurement": "viability at 10 µM", "setting": "T24", "result": "89.6 ± 2.1", "unit": "%"}, {"measurement": "viability at 10 µM", "setting": "J82", "result": "80.9 ± 1", "unit": "%"}, {"measurement": "viability at 10 µM", "setting": "MCF7", "result": "102 ± 2", "unit": "%"}, {"measurement": "MTD at 14 day", "setting": "[1]", "result": "> 160", "unit": "mg/kg"}, {"measurement": "viability at 10 µM", "setting": "A-427", "result": "79.1 ± 2.5", "unit": "%"}, {"measurement": "viability at 10 µM", "setting": "HCT-15", "result": "96.7 ± 1.6", "unit": "%"}, {"measurement": "viability at 10 µM", "setting": "U-373MG", "result": "102 ± 1.5", "unit": "%"}, {"measurement": "viability at 10 µM", "setting": "PC-3", "result": "90.7 ± 3.6", "unit": "%"}]}]}
